Measured values reported in publication PMC10671052, “Naphthyl-Substituted Indole and Pyrrole Carboxylic Acids as Effective Antibiotic Potentiators—Inhibitors of Bacterial Cystathionine γ-Lyase” (International Journal of Molecular Sciences, 2023).

Assays:
[1] = LogD7.4, miniaturized shake flask method; assay type: physicochemical; details: 1-octanol / 100 mM sodium phosphate buffer pH 7.4
Protocol: Coefficients of distribution between 1-octanol and 100 mM sodium phosphate buffer (pH 7.4) were determined by the miniaturized shake flask method. Namely, 5 μL of a 10 mM compound’s solution in DMSO was dissolved in 245 μL of 1-octanol saturated with phosphate buffer. Next, 500 μL of phosphate buffer saturated with 1-octanol was added, followed by mixing for 3 h. […] After that, 50 μL of the octanol phase (top layer) was aspirated and diluted with 500 μL of 1-octanol saturated with phosphate buffer. Then, the remaining octanol phase was removed; 50 μL of the buffer layer was aspirated and diluted with 500 μL of phosphate buffer saturated with 1-octanol. Both the octanol and phosphate buffer samples were analyzed by LC–MS/MS. The distribution coefficient was determined according to the following equation: logD7.4 = log10 (peak area for octanol sample/peak area for buffer sample). […] All compounds were tested in triplicate.

[2] = test system: P. aeruginosa GIMC5016:PA1840/36/2015; assay: MIC of antibiotics alone and with potentiators, clinical isolate
Protocol: Overnight (ON) culture of a specific strain was grown in the liquid Luria–Bertani nutrient medium (LB broth, BD Difco) for 18 h at 37 °C, with agitation at 180 rpm using an Innova 44R orbital shaker (Eppendorf, Hamburg, Germany). After a certain period, 50 µL of the ON culture was transferred into 5 mL of the LB medium and grown for 3 h at 37 °C with agitation. Growth in the liquid medium was assessed by means of turbidity of the suspension, measured using a Densi-La-Meter II densitometer (Erba Lachema s.r.o., Brno, Czech Republic). Then, the bacterial suspension was diluted to the concentration 10^6 cells/mL with sterile LB and used as a seed culture [38, 39].
For the assessment of MICs, 96-well microtiter plates were utilized at 200 µL of a medium per well. Each well was filled with 100 µL of the seed culture. After that, 10 µL of a solution of each tested synthetic compound (potentiators) was added into each experimental well. Finally, 90 µL of twofold serial dilutions of an antibiotic in a sterile LB was added into individual wells.
As a positive control, we set up wells with 100 µL of the bacterial culture and 100 µL of the sterile LB medium. […] Negative-control wells contained 200 µL of the sterile medium. The plates were incubated in a thermostat for 18–20 h at 37 °C. The bacterial growth was assessed as optical density at 600 nm on a CLARIOstar microplate reader (BMG LABTECH GmbH, Ortenberg, Germany)).

[3] = HEK293 cytotoxicity assay (Alamar Blue); assay type: cell-based; details: human, HEK293 cells, HEK293, 72 h
Protocol: The HEK 293 cell line was obtained from the European Collection of Authenticated Cell Cultures (ECACC, cat. # 85120602, Salisbury, UK). The cells were grown in a monolayer culture in Dulbecco’s Modified Eagle’s Medium (DMEM) (PanEco, Moscow, Russia), supplemented with 2 mM L-glutamine, 1% of a penicillin/streptomycin solution (Capricorn Scientific, Ebsdorfergrund, Germany), and 10% of heat inactivated fetal bovine serum (HyClone, Cytiva, Marlborough, MA, USA) in a humidified atmosphere containing 5% of CO2 at 37 °C (Binder, Germany). For the assay, HEK 293 cells were seeded in a 96-well plate (Corning, NY, USA) in 100 μL of the complete culture medium, at a final density of 2 × 10^3 cells/well, and were cultured for 24 h for proper attachment. Subsequently, the medium was removed, and the cells were exposed to a tested inhibitor at different concentrations for 72 h in 100 μL of the fresh complete culture medium. The sensitivity of the cells to the compounds was detected using the vital dye Alamar Blue (Invitrogen, San Diego, CA, USA). The Alamar Blue assay was performed according to the procedure described by O’Brien et al.. After incubation with the tested bCSE inhibitors, 10 μL of the Alamar Blue reagent was added into each well, the cell culture plates were returned to the humidified incubator, and the fluorescence was read after 3 h. The plates were exposed to an excitation light of 545 nm wavelength, and emission at 600 nm was measured on the CLARIOstar Plus (BMG LABTECH GmbH, Ortenberg, Germany). To determine half-maximal cytotoxic concentration (CC50), a four-parameter sigmoidal curve model (GraphPad Prism 8 software) was fitted to the measurement data.

[4] = test system: Caco-2 cell monolayer; assay: Caco-2 cell permeability; assay type: in vitro ADME; details: Papp (BA) / Papp (AB); listed as lead compound
Protocol: (§1) The culture medium consisted of high-glucose DMEM containing 10% of fetal bovine serum, 4 mM L-glutamine, 1% of a solution of nonessential amino acids (PanEco, Moscow, Russia), 100 U/mL penicillin, and 100 μg/mL streptomycin. The cells were maintained for 21 days at 37 °C and 5% CO2. The medium was refreshed every 3 days. A Lucifer yellow rejection assay was applied to determine cell monolayer integrity. […] The Lucifer yellow rejection value was calculated using the equation: LY % rejection = 100*(1−FIb/FIa), where FIb is the fluorescence in the basolateral compartment and FIa is the fluorescence in the apical compartment. […] Both apical-to-basolateral (AB) and basolateral-to-apical (BA) transport were assessed. For apical-to-basolateral transport, 0.3 mL of a test compound solution was added to the apical side, and 0.8 mL of HBSS with 0.5% of BSA was added to the basolateral side. For basolateral-to-apical transport, 0.8 mL of a test compound solution was added to the basolateral side and 0.3 mL of HBSS with 0.5% of BSA was added to the apical side. The Caco-2 cell monolayers were then incubated for 2 h at 37 °C. The pH values of the apical and basolateral compartments were 7.4. […] The supernatant was transferred to a vial and analyzed by liquid chromatography coupled with tandem MS (LC–MS/MS). The AB (or BA) apparent permeability coefficients (Papp, 10^–6 cm/s) were calculated according to the following formula [40, 41]: Papp = (V × ∆C)/(∆t × A × C0), where V is the volume of the receiver compartment (cm^3), C0 is the initial drug concentration in the donor compartment (μM), ∆C is the concentration in the receiver compartment (μM), ∆t is the incubation time (s), and A is the surface area of the cell monolayer (cm^2). An efflux ratio was calculated by dividing Papp (BA) by Papp (AB). All compounds were tested in duplicate.

[5] = Caco-2 cell permeability; assay type: in vitro ADME; details: human
Protocol: as §1

[6] = P. aeruginosa GIMC5016:PA1840/36/2015, potentiator 50 µg/mL

O=C(O)c1cc2ccccc2n1Cc1cccc2ccccc12 [Compound 2a]
Measured logD7.4 ([1]; listed as 2а): 2.14±0.14 | Measured logD7.4 ([1]; listed as lead compound): 1–3 | MIC of Tacillin in combination with potentiator ([2]; P. aeruginosa GIMC5016:PA1840/36/2015, piperacillin + tazobactam, potentiator 50 µg/mL): 32 µg/mL | MIC of Cefepim in combination with potentiator [2, 6]: 32 µg/mL | MIC of Gentamicin in combination with potentiator [2, 6]: > 512 µg/mL | MIC of Meropenem in combination with potentiator [2, 6]: 8 µg/mL | CC50 at 72 h [3]: 291 ± 8.11 µM | Efflux ratio [4]: less than 2.0 | efflux ratio at 2 h, 10 μM ([5]; Caco-2, Papp (BA) / Papp (AB)): 1.13 | Papp A→B at 2 h, 10 μM ([5]; Caco-2, 10 μM, 2 h, pH 7.4): 43.3 ± 2.8 ×10⁻⁶ cm/s | Papp B→A at 2 h, 10 μM ([5]; Caco-2, 10 μM, 2 h, pH 7.4): 49.1 ± 6 ×10⁻⁶ cm/s
